# Results from patent US10344330B2, “Glatiramer acetate response biomarker mRNA potency assay” (Mylan Inc., priority 2013, dated 2019).
# Several values for one entry are separate records, joined by “and”; a condition that tells them apart may be missing. Identical values can stand only once.
# B1: MBP: myelin basic protein, a negative control (protein, UniProt P02686 1-304, looked up)
# Myelin basic protein: MGNHAGKRELNAEKASTNSETNRGESEKKRNLGELSRTTSEDNEVFGEADANQNNGTSSQDTAVTDSKRTADPKNAWQDAHPADPGSRPHLIRLFSRDAPGREDNTFKDRPSESDELQTIQEDSAATSESLDVMASQKRPSQRHGSKYLATASTMDHARHGFLPRHRDTGILDSIGRFFGGDRGAPKRGSGKDSHHPARTAHYGSLPQKSHGRTQDENPVVHFFKNIVTPRTPPPSQGKGRGLSLSRFSWGAEGQRPGFGYGGRASDYKSAHKGFKGVDAQGTLSKIFKLGGRDSRSGSPMARR
# Columns and labels:
# [1] = test system: mIL-2 mRNA in primary LN cells; assay: mIL-2 mRNA by real-time PCR in ex vivo stimulated LN cells of immunized (SJL/J×BALB/C)F1 mice (Example I); type: cell-based, mouse
# Description: (§1) For each of the three experiments summarized in Table 1, female (SJL/J×BALB/C) F1 hybrid (Jackson Laboratory) mice were immunized by footpad injection with either 250 μg GMA (Mylan Pharmaceuticals, Inc.) and CFA (Sigma Aldrich), or Mannitol and CFA (as a negative control). The GA solution was diluted to 5 mg/mL with Dulbecco's Phosphate-buffered saline. A dose solution was then prepared by mixing the diluted GA solution (5 mg/mL) and CFA (1:1) until well-emulsified. Each mouse received a total injection volume of 0.1 mL (250 μg GA). Animals were immunized on Day 0. Immunized animals were sacrificed via cervical dislocation on Day 10 following immunization. Lymph nodes in the axillary and popliteal regions were removed aseptically in a purifier clean bench, and transferred into a sterile petri dish containing about 5 mL of sterile RPMI 1640 medium. The LN were washed 3 times with −5 mL of RPMI medium, and the LN cells isolated by pressing the LN with a syringe plunger. The cell suspension was transferred to a sterile 50 mL conical tube, washed in about 40 mL of RPMI medium by centrifuging at about 200×g for 10 minutes at about 4° C., and re-suspended in RPMI 1640 medium for cell counting. The cell suspension was centrifuged at about 200×g for 10 minutes at about 4° C. and re-suspended in ice cold enriched DCCM-1 medium. The LN cells (2.5×10^6 cells/cm^2) were plated in the wells of a 48-well tissue culture plate and stimulated with GA or controls.
# After incubation at about 37° C. in a humidified CO2 incubator for the indicated time, total RNA was isolated from the treated cells using the RNeasy Mini Kit (Qiagen, Cat. #74104). Cells were lysed in RNA lysis buffer, transferred to Qiagen spin columns, washed, and the RNA eluted with DEPC-treated water from the column. cDNA was synthesized from each RNA sample using the High Capacity cDNA Reverse Transcription Kit (Applied Biosystems, Cat. #4368814). The PCR reactions were carried out using TaqMan Universal PCR Master Mix (Applied Biosystems, Cat. #4304437) and specific primers/probe for the target cytokine and reference internal controls. Primers/probes for mouse cytokines IL-2 (Cat. #4331182; ID Mm00434256_m1), IL-4 (Cat. #4331182; ID Mm00445259_m1), IL-5 (Cat. #4331182; ID Mm00439646_m1), IFN-γ (Cat. #4331182; ID Mm01168134_m1), IL-10 (ID Mm00439614_m1), and TNF-α (Mm00443260_g1) were obtained from Life Technologies. Expression of cytokine mRNA was quantitatively analyzed using a Real-Time PCR system (7500, Applied Biosystems).
# (DCCM1 from Beit Haemek Ltd.; Cat. No. 05 010 1A). There was no MBP treatment for the 2-hour groups. (MBP from Bachem; Cat No. H-1964.0001) For each evaluation time DCCM1 was studied and compared, i.e. 2 hours represents 2 hours with DCCM1, 4 hours=4 hours, etc., and served as representative control for each timepoint.
# For Experiment 3, a 96-well plate format was used, and RNA isolation was carried out using an SV 96 Total RNA Isolation System (Promega). Immunization of Groups 3A and 4A are described in Table 1. […] Y-axis: linear mRNA fold-changes of mIL-2. X-axis: log Cop and GA (Mylan GMA) concentration values. The best fit for the data set was performed using the logarithmic model.
# Group 1B animals were female (SJL/J×BALB/C) F1 hybrid (Jackson Laboratory) mice immunized by footpad injection with either 250 μg GA and CFA, or Mannitol and CFA (as a negative control). A dose solution was prepared by mixing a diluted GA solution (5 mg/mL) and CFA (1:1).
# [2] = test system: mIFN-γ mRNA in primary LN cells; assay: mIFN-γ mRNA by real-time PCR in stimulated LN cells of immunized (SJL/J×BALB/C)F1 mice (Example I); type: cell-based, mouse
# Description: as §1, with “Lymph nodes in the axillary and popliteal regions were removed aseptically in a purifier clean bench, and transferred into a sterile petri dish containing about 5 mL of sterile RPMI 1640 medium.” left out, “The cell suspension was transferred to a sterile 50 mL conical tube, washed in about 40 mL of RPMI medium by centrifuging at about 200×g for 10 minutes at about 4° C., and re-suspended in RPMI 1640 medium for cell counting.” left out
# Expression of cytokine mRNA was quantitatively analyzed using a Real-Time PCR system (7500, Applied Biosystems).
# (DCCM1 from Beit Haemek Ltd.; Cat. No. 05 010 1A). There was no MBP treatment for the 2-hour groups.
# Group 1B animals were female (SJL/J×BALB/C) F1 hybrid (Jackson Laboratory) mice immunized by footpad injection with either 250 μg GA and CFA, or Mannitol and CFA (as a negative control). A dose solution was prepared by mixing a diluted GA solution (5 mg/mL) and CFA (1:1). Each mouse received a total injection volume of […] (250 μg GA). Animals were immunized on Day 0. Immunized animals were sacrificed via cervical dislocation on Day 10 following immunization. Lymph nodes from immunized mice were removed and isolated. LN cells (2.5×10^6 cells/cm^2) were plated in the wells of a 48-well tissue culture plate for stimulation with GA.
# Expression of cytokine mRNA was quantitatively analyzed 4 and 6 hours after using a Real-Time PCR system (7500, Applied Biosystems).
# [3] = Experiment 1, GA-immunized (SJL/J×BALB/C)F1, 2 hour post stimulation, GA 10, ConA 2.5 μg/mL
# [4] = Experiment 1, GA-immunized (SJL/J×BALB/C)F1, 4 hour post stimulation, GA 10, MBP 10, ConA 2.5 μg/mL
# [5] = Experiment 1, GA-immunized (SJL/J×BALB/C)F1, 6 hour post stimulation, GA 10, MBP 10, ConA 2.5 μg/mL
# [6] = Experiment 1, GA-immunized (SJL/J×BALB/C)F1, 24 hour post stimulation, GA 10, MBP 10, ConA 2.5 μg/mL
# [7] = Experiment 3, Group 3A (GA + CFA), stimulation 2.5 μg/mL, 6 hours
# [8] = Experiment 3, Group 3A (GA + CFA), stimulation 10 μg/mL, 6 hours
# [9] = Group 1B (GA + CFA), 4 hours post-stimulation, GA 10, MBP 10, ConA 2.5 μg/mL, reference 18S rRNA
# [10] = Group 1B (GA + CFA), 6 hours post-stimulation, GA 10, MBP 10, ConA 2.5 μg/mL, reference 18S rRNA
# [11] = Group 2B (Mannitol + CFA), 4 hours post-stimulation, GA 10, MBP 10, ConA 2.5 μg/mL, reference 18S rRNA
# [12] = Group 2B (Mannitol + CFA), 6 hours post-stimulation, GA 10, MBP 10, ConA 2.5 μg/mL, reference 18S rRNA
# [13] = Group 1B (GA + CFA), 4 hours post-stimulation, GA 10, MBP 10, ConA 2.5 μg/mL, reference GAPDH
# [14] = Group 1B (GA + CFA), 6 hours post-stimulation, GA 10, MBP 10, ConA 2.5 μg/mL, reference GAPDH
# [15] = Group 2B (Mannitol + CFA), 4 hours post-stimulation, GA 10, MBP 10, ConA 2.5 μg/mL, reference GAPDH
# [16] = Group 2B (Mannitol + CFA), 6 hours post-stimulation, GA 10, MBP 10, ConA 2.5 μg/mL, reference GAPDH
# [17] = Experiment 3, Group 4A controls, *Animals not immunized, MBP 10, ConA 2.5 μg/mL, 6 hours
Molecule,"mIL-2 mRNA Level [1, 3] [fold change vs control]","mIL-2 mRNA Level [1, 4] [fold change vs control]","mIL-2 mRNA Level [1, 5] [fold change vs control]","mIL-2 mRNA Level [1, 6] [fold change vs control]","mIL-2 mRNA Level [1, 7] [fold change vs control]","mIL-2 mRNA Level [1, 8] [fold change vs control]","mIL-2 mRNA Level [1, 9] [fold change vs control]","mIL-2 mRNA Level [1, 10] [fold change vs control]","mIL-2 mRNA Level [1, 11] [fold change vs control]","mIL-2 mRNA Level [1, 12] [fold change vs control]","mIFN-γ mRNA Level [2, 3] [fold change vs control]","mIFN-γ mRNA Level [2, 4] [fold change vs control]","mIFN-γ mRNA Level [2, 5] [fold change vs control]","mIFN-γ mRNA Level [2, 6] [fold change vs control]","mIFN-γ mRNA Level [2, 13] [fold change vs control]","mIFN-γ mRNA Level [2, 14] [fold change vs control]","mIFN-γ mRNA Level [2, 15] [fold change vs control]","mIFN-γ mRNA Level [2, 16] [fold change vs control]","mIL-2 mRNA Level [1, 17] [fold change vs control]",further results
"L-glutamic acid polymer with L-alanine, L-lysine and L-tyrosine, acetate (salt) [GA]",5.3,12.2,20.8,3.6,20.2,26.1,16.7,10.2,1.8,1.4,1.3,2.1,4.6,4.6,7.0,2.4,1.2,1.8,,"mIL-2 mRNA Level ([1]; Experiment 3, Group 3A (GA + CFA), stimulation 1 μg/mL, 6 hours): 9.7 fold change vs control; mIL-2 mRNA Level ([1]; Experiment 3, Group 3A (GA + CFA), stimulation 5 μg/mL, 6 hours): 22.6 fold change vs control; mIL-2 mRNA Level ([1]; Experiment 3, Group 3A (GA + CFA), stimulation 15 μg/mL, 6 hours): 27.3 fold change vs control; mIL-2 mRNA Level ([1]; Experiment 3, Group 3A (GA + CFA), stimulation 25 μg/mL, 6 hours): 34.7 fold change vs control; mIL-2 mRNA Level ([1]; Experiment 3, Group 4A (Mannitol + CFA), stimulation 5 μg/mL, 6 hours): 3.0 fold change vs control; mIL-2 mRNA Level ([1]; Experiment 3, Group 4A (Mannitol + CFA), stimulation 10 μg/mL, 6 hours): 1.6 fold change vs control; mIL-2 mRNA Level ([1]; Experiment 3, Group 4A (Mannitol + CFA), stimulation 25 μg/mL, 6 hours): 1.7 fold change vs control and 1.5 fold change vs control; mIL-2 mRNA level increase vs DCCM-1-stimulated control ([1]; Group 1B, 4 and 6 hours (text summary of Table 8)): at least 10 fold"
"Concanavalin A [ConA, reference compound]",183.4,131.5,105.0,16.2,111.0,,256.3,54.3,517.9,277.9,40.9,49.3,18.2,0.4,29.5,3.0,15.5,8.9,91.4,
B1,,1.0,0.3,0.6,,0.9,0.5,0.3,0.4,0.5,,0.8,0.2,0.6,0.9,0.6,1.1,0.9,1.5,
